From patent US12016959B2, “Sustained drug release sheet for treating nerve injury” (OSAKA UNIVERSITY, priority 2016, dated 2024)

Tests used:
[1] = Concentration of vitamin B12 (drug) in blood, rat sciatic nerve crush injury model; type: in vivo; conditions: 6 weeks after surgery; mean±SEM
Procedure: The examination on the sheet that contained the present extract as a drug was carried out in the same manner.
Blood was collected in an amount of 1 mL from the left ventricle of a rat under anesthesia 6 weeks after the surgery. The collected blood was centrifuged at 800×g for 20 minutes to collect a supernatant. The measurement of a concentration of vitamin B12 in the blood was entrusted to BML, INC. (Tokyo).

[2] = tested on: rat sciatic nerve crush injury model; assay: Motor function, sciatic function index (SFI), rat sciatic nerve crush injury model; type: in vivo; conditions: 6 weeks after surgery; 0 = normal, −100 = impaired; untreated group −20.6±4.2; mean±SEM
Procedure: (§1) All of animal experiments were went ahead with the approval of the Ethics Committee of the animal laboratory of Osaka University. Six-week-old male Wistar rats (body weights: about 200 g) were used. All of the surgeries were carried out while applying deep sedation with a mixed anesthetic drug composed of midazolam (2 mg/kg), butorphanol (2.5 mg/kg) and medetomidine (0.15 mg/kg). A left sciatic nerve was exposed under clean operations, and a crush injury was applied to a position 5 mm distal to a sciatic notch with a pair of forceps. The time of crushing was 10 seconds, the frequency of crushing operations was three times, and the intervals between the crushing operations was 10 seconds. The fascia and the skin were sutured together with 4-0 nylon. […] The systemic administration of methylcobalamin was performed by placing an osmotic minipump (Model 2ML2; Alzet, Cupertino, CA, USA) under the skin of the back. […]
For the evaluation of a motor function, a sciatic function index (SFI) was measured 6 weeks after the surgery. For the measurement of an SFI, an ink was applied to the back paw of a rat, then the rat was allowed to walk on office paper placed on a 40 cm-square horizontal table, and then foot prints of the rat were recorded. The four items mentioned below were measured to calculate an SFI. […] An SFI value was calculated in accordance with the following mathematical formula. […]

[3] = tested on: rat sciatic nerve crush injury model; assay: Sensory function, von Frey filament test, rat sciatic nerve crush injury model; type: in vivo; conditions: 6 weeks after surgery; untreated group 117.8±11.7 g; mean±SEM
Procedure: as §1
For the evaluation of a sensory function, a mechanical hind paw withdrawal threshold was measured 6 weeks after the surgery using a von Frey filament (0.008 to 26 g; Touch Test, North Coast Medical Inc, Gilroy, CA, USA). Each of the rats was made walk on a metallic mesh, then a pressure was applied onto the center of the sole until the filament began to bend, and then a value at which the rat evoked an escape behavior was recorded.

[4] = tested on: rat sciatic nerve crush injury model; assay: Electrophysiological evaluation (CMAP, TL, NCV), rat sciatic nerve crush injury model; type: in vivo; conditions: 6 weeks after surgery, mean±SEM
Procedure: (§2) All of animal experiments were went ahead with the approval of the Ethics Committee of the animal laboratory of Osaka University. Six-week-old male Wistar rats (body weights: about 200 g) were used. All of the surgeries were carried out while applying deep sedation with a mixed anesthetic drug composed of midazolam (2 mg/kg), butorphanol (2.5 mg/kg) and medetomidine (0.15 mg/kg). A left sciatic nerve was exposed under clean operations, and a crush injury was applied to a position 5 mm distal to a sciatic notch with a pair of forceps. The time of crushing was 10 seconds, the frequency of crushing operations was three times, and the intervals between the crushing operations was 10 seconds. The fascia and the skin were sutured together with 4-0 nylon. […] The systemic administration of methylcobalamin was performed by placing an osmotic minipump (Model 2ML2; Alzet, Cupertino, CA, USA) under the skin of the back. All of the surgeries were carried out by the same practitioner.
Each of the rats 3 or 6 weeks after the surgery was sedated with an anesthetic drug and was then placed on an operating table in a prone position. A left sciatic nerve and a left tibialis anterior muscle were exposed. Each of a compound muscle action potential (CMAP) and a terminal latency (TL) was measured while stimulating a proximal site of a sciatic nerve with a bipolar electrode. A nerve conduction velocity (NCV) was calculated from measurement values respectively obtained at a proximal site and a distal site to the sciatic nerve crush injury while stimulating the positions with a bipolar electrode. In the measurement and the evaluation, AD Instruments Power Lab 2/26, Stimulus isolator, and Bio Amp and Chart & Scope software (all manufactured by AD Instruments, Bel la Vista, NSW, Australis) were used.

[5] = tested on: rat sciatic nerve crush injury model; assay: Histological evaluation (axons, MBP-positive axons), rat sciatic nerve crush injury model; type: in vivo; conditions: 6 weeks after surgery, mean±SEM
Procedure: as §2
Each of the rats 6 weeks after the surgery was sedated with an anesthetic drug, and a left sciatic nerve was collected therefrom and then fixed with 4% PFA for 5 days and with 20% sucrose for 24 hours and then frozen and embedded. […] The total number of axons and the ratio of myelinated axons (total number of MBP-positive axons)/(total number of axons) were evaluated.

neurons = conditions: Non-Patent Document 2; cited from earlier work
Erk1/2 and Akt = conditions: through the methylation cycle; Non-Patent Document 2; cited from earlier work
[6] = tested on: rat sciatic nerve injury model; conditions: continuous high-dose administration; Non-Patent Document 2; cited from earlier work

C/C1=C2/[N-][C@H]([C@H](CC(N)=O)[C@@]2(C)CCC(=O)NC[C@@H](C)OP(=O)([O-])O[C@H]2[C@@H](O)[C@@H](n3cnc4cc(C)c(C)cc43)O[C@@H]2CO)[C@]2(C)N=C(/C(C)=C3N=C(/C=C4N=C1[C@@H](CCC(N)=O)C\4(C)C)[C@@H](CCC(N)=O)[C@]\3(C)CC(N)=O)[C@@H](CCC(N)=O)[C@]2(C)CC(N)=O.[CH3-].[Co+3] [MeCbl pump, methylcobalamin]
concentration of vitamin B12 in the blood [1]: 18.35 ± 2.27 ng/mL | sciatic function index (SFI) [2]: −10.5±2.0 | von Frey filament test, mechanical hind paw withdrawal threshold [3]: 77.8 ± 7.0 g | terminal latency (TL) ([4]; untreated group 3.45±0.08 ms): 3.24 ± 0.07 ms | compound muscle action potential (CMAP) ([4]; untreated group 19.5±2.3 mV): 19.5±1.5 mV | nerve conduction velocity (NCV) ([4]; untreated group 28.2±2.5 m/s): 43.2±2.5 m/s | ratio of myelinated axons (number of MBP-positive axons)/(total number of axons) ([5]; untreated group 85.0±0.9%): 91.5±0.6% | number of regenerated axons per sq. mm ([5]; untreated group 2843±68/mm^2): 2735±77 /mm^2 | concentration that can promote the elongation of neurites and the survival of neurons (neurons): ≥ 100 nM | activities of Erk1/2 and Akt (Erk1/2 and Akt): increase the activities of Erk1/2 and Akt | nerve regeneration and function recovery [6]: improves nerve regeneration and function recovery
